Test results reported in US20250339402A1, “EFFECTIVE MEANS TO MODULATE NMDA RECEPTOR-MEDIATED TOXICITY” (FUNDAMENTAL PHARMA GMBH, priority 2022, published 2025).
Entries after “also recorded” stand apart in the source; their conditions may differ. Structures can show the parent of a compound that is named as a salt.

Columns and labels:
Type in all cases: cell-based
NMDAR/TRPM4 complex = target: T1, NMDAR/TRPM4 complex (Homo sapiens, UniProt Q8TD43); assay: Co-immunoprecipitation of TRPM4 and NMDA receptor subunits, Western blot; conditions: 10 μM for 30 min; lysates of human iPSC-derived brain organoids precipitated with anti-TRPM4; FIG. 5; hydrochloride
T1 construct: endogenous in cells; host or cells: human iPSC-derived brain organoids, week 25
Description: All procedures for co-immunoprecipitation were carried out at 4° C. Human iPSC derived brain organoids were cultured in Falcon@6 well TC-treated cell culture plate to week 25 as described (Bauersachs H G et al, Neuroscience, 2022; 484:83-97), which allows an abundant expression of both GluN2A/GluN2B/TRPM4 expression. 6 brain organoids were incubated with 10 μM compound 120 for 30 min, washed twice with ice-cold PBS and then lysed in 500 μL immunoprecipitation buffer (10 mM Tris, pH 8.0, 150 mM NaCl, 1 mM EDTA, 1% NP-40, 10% glycerol with EDTA-free Protease Inhibitor Cocktail (Roche). The lysate was incubated while rotating for 60 min, centrifuged for 12 min at 1,200×g to remove cell debris and nuclei. 10% of the supernatant was boiled with Laemmli buffer for input samples analysis. The rest of the supernatant was mixed with anti-TRPM4 antibody (1:200) overnight. The mixture was then incubated with Pierce™ Protein A Magnetic Beads for another 12 h to pull down antibody complex, and washed with immunoprecipitation buffer to remove any unspecific bindings. After the last washing, the supernatant was carefully removed, and the precipitate pellets were boiled in Laemmli buffer. Both input and precipitate samples were stored at −20° C. until analysed with western blots. […]

[1] = tested on: Primary mouse hippocampal neurons; assay: Excitotoxic (glutamate/NMDA-induced) cell death in primary neuronal cultures, protection index; conditions: first subset; protection index from area above curve over 24 h glutamate/NMDA insult; compounds added 30 min before; 10 μM, Group A also at lower concentrations
Description: Primary mouse hippocampal neurons were prepared as previously described (Bading & Greenberg, Science, 1991; 253: 912-914; Zhang et al, Neuron, 2007, 53: 549-562) and maintained in Neurobasal-A medium supplemented with 2% B27, 5 mM L-Glutamax, and 0.5% Penicillin/Streptomycin until challenged with NMDA on days in vitro (DIV) 10. Glutamate-induced cell death was analyzed in a real-time manner by monitoring nuclear localized mCherry with IncuCyte® S3 Live-Cell Analysis System (Sartorius AG, Germany). Primary neurons plated in 24 well plates were infected with rAAV-hSyn-mCherry on DIV3 and challenged with 1 μM or 20 μM glutamate on DIV10. All compounds were added to the culture 30 min prior to glutamate/NMDA insult. Images were acquired following the glutamate application for 24 h with a 2 h interval, where 9-16 images were obtained via a 20×objective for each condition at each time point. Cell deaths were quantified by analyzing the existence of nuclear localized mCheery via the Basic Analyzer with Incucyte® 2021 software, size and average intensity were used as exclusion criteria.
In order to evaluate the protective effects of various compounds, a quantification method was developed to determine each compound's protection index. The protection index (from 0.0 to 10.0) was calculated by the area above the curve (AAC) during a 24 h excitotoxic stimuli, where the cell survival was normalized to the 0 h (FIG. 2), following the equation: […]
Where AAC represents for each compound, AACbasal represents for the basal condition without excitotoxic insult, AACVeh represents for the vehicle control with excitotoxic insult. Based on the equation, vehicle (DMSO) has a protection index at 0.0 and compound P401 of WO 2020/079244 has a protection index at 6.0 (at 10 μM).
The inventors also performed experiments with Group A compounds at lower concentration in a 3-fold dilution matter ([…]: 3.0, 1.0, 0.3, 0.1, 0.03) and were able to achieve a similar protection effect as 10 μM compound P401, but at a lower concentration.

[2] = tested on: human iPSC-derived prefrontal cortex organoids; assay: Cell survival after glutamate/NMDA treatment in prefrontal cortex organoids (RealTime-Glo MT Cell Viability Assay); conditions: pre-incubation 30 min, 200 μM NMDA for 24 h; compared with P401; FIG. 4; hydrochloride
Description: Prefrontal cortex organoids were generated based on published literature (Bauersachs H G et al, Neuroscience, 2022; 484:83-97). Around week 20, organoids were pre-incubated with compound 120 for 30 min before challenged with 200 μM NMDA for 24 h, where 80% of neuron will undergo necrosis. The cell death was monitored and analyzed with a RealTime-Glo™ MT Cell Viability Assay (Promega, G9711) following the manufacture's instruction using a plate reader (luciferase). The cell survival (%) can be calculated by the following equation: […]
Where Ft is the luciferase intensity at each time point and Fbasal is the basal luciferase intensity before glutamate/NMDA insult to diminish the difference between different organoids. The Control and FControlBasal stands for the same in untreated organoids, therefore the cell death can be calculated by normalization to the healthy organoids.

T1 sequence (Q8TD43 whole entry, one chain of several): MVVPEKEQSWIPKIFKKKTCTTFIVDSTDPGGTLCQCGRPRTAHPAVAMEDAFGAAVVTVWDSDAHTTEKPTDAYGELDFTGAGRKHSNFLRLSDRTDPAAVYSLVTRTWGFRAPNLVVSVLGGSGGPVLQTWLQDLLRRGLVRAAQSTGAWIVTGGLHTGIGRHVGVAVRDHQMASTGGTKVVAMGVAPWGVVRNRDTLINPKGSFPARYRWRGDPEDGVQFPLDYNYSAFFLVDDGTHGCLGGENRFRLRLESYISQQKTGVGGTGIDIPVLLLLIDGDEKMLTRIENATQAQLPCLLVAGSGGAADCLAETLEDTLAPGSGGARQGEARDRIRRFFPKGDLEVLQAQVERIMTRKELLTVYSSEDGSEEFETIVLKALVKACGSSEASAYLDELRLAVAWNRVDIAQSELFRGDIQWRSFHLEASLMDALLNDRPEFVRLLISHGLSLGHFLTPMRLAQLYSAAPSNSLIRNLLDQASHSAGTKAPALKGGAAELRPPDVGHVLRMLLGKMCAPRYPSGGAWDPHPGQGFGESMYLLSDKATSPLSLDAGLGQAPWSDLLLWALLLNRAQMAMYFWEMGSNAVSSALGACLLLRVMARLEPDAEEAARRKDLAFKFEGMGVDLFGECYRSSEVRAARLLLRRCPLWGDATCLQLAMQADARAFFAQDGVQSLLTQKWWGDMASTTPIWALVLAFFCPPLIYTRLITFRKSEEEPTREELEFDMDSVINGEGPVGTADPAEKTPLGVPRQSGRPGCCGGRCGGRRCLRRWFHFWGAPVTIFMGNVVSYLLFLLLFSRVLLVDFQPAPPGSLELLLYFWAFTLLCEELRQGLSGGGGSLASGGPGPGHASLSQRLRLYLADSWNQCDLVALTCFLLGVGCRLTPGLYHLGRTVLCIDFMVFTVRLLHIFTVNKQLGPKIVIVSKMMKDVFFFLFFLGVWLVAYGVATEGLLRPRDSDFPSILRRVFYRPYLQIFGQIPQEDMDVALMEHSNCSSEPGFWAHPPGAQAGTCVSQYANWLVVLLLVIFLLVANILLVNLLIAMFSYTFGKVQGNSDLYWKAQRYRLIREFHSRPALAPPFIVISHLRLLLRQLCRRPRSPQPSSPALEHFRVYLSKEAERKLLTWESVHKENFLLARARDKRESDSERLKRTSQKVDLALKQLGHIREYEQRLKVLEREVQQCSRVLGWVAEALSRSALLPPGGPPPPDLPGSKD

NCCN(Cc1cccc(Cl)c1F)C1CC1 [Compound 120, N1-(3-chloro-2-fluorobenzyl)-N1-cyclopropylethane-1,2-diamine hydrochloride]
disruption of NMDAR/TRPM4 complex (NMDAR/TRPM4 complex): the NMDAR/TRPM4 complex was disrupted; also recorded: disrupts the NMDAR/TRPM4 complex
Biological Activity Rating [1]: A+++ (With a protection index between 5.0 to 7.0, provides a comparable protection to compound P401 (10 μM) at 0.3 μM.)
cell survival (%) after glutamate/NMDA treatment [2]: superior protection over compound P401; also recorded: improves cell survival after glutamate/NMDA treatment
